“Also recorded” adds a separate entry of the source. Read-outs that look alike come from different tables or passages of the source.
Legend:
[1] = system: CAMP gene; assay: Fold induction assay in the MN8CampLuc reporter cell line (luciferase coupled to CAMP gene); type: cell-based, human; settings: for Fold induction (as luciferase activity): cells pre-differentiated by treatment with galactose, FIG. 4 and FIG. 5
Description: MN8CampLuc cells were handled according to Nylen et. al. with the following exception when predifferention of cells were performed before induction: […]

[2] = system: CAMP gene; assay: RT-PCR of CAMP gene expression in parental HT-29 cell line; type: cell-based, human
Description: RT-PCR experiments were performed according to Nylen et. al. (Nylén F, Miraglia E, Cederlund A, Ottosson H, Stromberg R, Gudmundsson G H, Agerberth B. 2013. Boosting innate immunity: Development and validation of a cell-based screening assay to identify LL-37 inducers. Innate Immun.).

[3] = system: autophagy-related genes Beclin-1 and AtgS; assay: RT-PCR of autophagy marker genes in HEK-293 cells; type: cell-based; settings: for Expression of autophagy-related genes Beclin-1 and AtgS: 24 hrs, PBA 2 mM, compound 5 10 μM, Rapamycin 100 nM, FIG. 9 upper panel
Description: (§1) RT-PCR experiments for expression of marker genes for autophagy in HEK-293 cells were measured by real-time PCR. Data were normalized by the expression of the 18s rRNA housekeeping gene. For the immunofluorescence spectroscopy experiments HEK-293 cells were fixed after treatment with the inducers or control. The cells were then stained with DAPI to visualize the nuclei (blue), and immunolabeled with the anti-LC3, followed by the addition of Alexa-fluor 488 (green). Scale bar=10 μm.

[4] = system: LC3; assay: Immunofluorescence of LC3 in HEK-293 cells; type: cell-based; settings: 10 μM, 24 hrs, FIG. 9 lower panel
Description: as §1

[5] = system: histone deacetylases; settings: average of assays reported in PubChem, FIG. 4 right panel; cited from earlier work
[6] = MN8CampLuc reporter cell line, FIG. 6
[7] = MN8CampLuc reporter cell line, FIG. 2

With `Nc1ccccc1NC(=O)c1ccc(CNC(=O)OCc2cccnc2)cc1` [Compound 5, Pyridin-3-ylmethyl (4-((2-aminophenyl)-carbamoyl)benzyl)carbamate] the “Induction in combination with VitD” value [1, 6] was “synergistic effect; also recorded: Synergism with Vitamin D”, the “Induction on co-incubation with PBA (13)” value [1, 6] was “reduces entinostat-elicited induction” and the “Inducing concentration lower than that of PBA” value ([1]; MN8CampLuc, 0.625-5 μM vs PBA 2-4 mM) was “about 3 orders of magnitude”. For the same molecule, the “Concentration required for induction” value ([1]; MN8CampLuc, FIG. 2) was “lowest concentration; also recorded: effective already at μM concentrations”, the “Induction compared with PBA (13) at 2-4 mM” value ([1]; MN8CampLuc, compound 5 at 0.625-5 μM, FIG. 2) was “considerably higher” and the “Induction of the CAMP gene at mRNA level (RT-PCR)” value ([2]; HT29 parental cells, FIG. 7) was “induces the CAMP gene; also recorded: enhanced transcription of the CAMP gene”. For the same molecule, the “Induction of the CAMP gene at mRNA level in combination with Vitamin D” value ([2]; HT29 parental cells, FIG. 7) was “synergy with Vitamin D; also recorded: synergism with Vitamin D”, the “CAMP gene expression (mRNA), time course” value ([2]; HT-29 cells, 4 and 8 h, FIG. 8) was “did not induce” and the “CAMP gene expression (mRNA), time course” value ([2]; HT-29 cells, 24 and 48 h, FIG. 8) was “induction was prominent”. For the same molecule, the “Expression of autophagy-related genes Beclin-1 and AtgS” value [3] was “increased expression”, the “Expression of autophagy-related genes Beclin-1 and AtgS” value ([3]; listed as Entinostat) was “upregulate the expression” and the Autophagy ([3]; marker genes and LC-3, FIG. 9) was “induce autophagy; also recorded: stimulates autophagy”. The “LC3 expression in its membrane form (LC3-II)” value [4] was “upregulate”.
For `COc1ccc(CNc2ccccc2N)cc1` [Compound 16, N-(4-Methoxybenzyl)-1,2-benzenediamine], the “Fold induction (as luciferase activity)” value ([1]; MN8CampLuc) was “at a cost of inducing ability”.
In the case of `CN(C)c1ccc(NC(=O)CCCC(=O)Nc2ccccc2N)cc1` [Compound 9, N^1-(2-aminophenyl)-N^5-(4-(dimethylamino)-phenyl)glutaramide], the “Fold induction of the CAMP gene (LL-37-luciferase)” value (shortened to “Fold induction … (LL-37-luciferase)”) [1, 7] is reported as “at a cost of inducing ability”.
For `CC(/C=C/C(=O)NO)=C\[C@@H](C)C(=O)c1ccc(N(C)C)cc1` [Compound 19, Trichostatin A], the “Fold induction (as luciferase activity)” value ([1]; MN8CampLuc) is listed as “much less fold induction than compound 5” and the “HDAC inhibition (known IC50 values) compared with compound 5” value [5] is listed as “considerably more powerful HDAC inhibitors”.
With `Nc1ccccc1NC(=O)c1ccc(CNC(=O)OCc2ccccc2)cc1` [Compound 4, Benzyl (4-((2-aminophenyl)carbamoyl)-benzyl)carbamate] the “Concentration required for induction” value ([1]; MN8CampLuc, FIG. 2) was “slightly higher concentration”.
With `O=C(CCCCCCC(=O)Nc1ccccc1)NO` [Compound 12, N1-hydroxy-N8-phenyloctanediamide] the “Fold induction (as luciferase activity)” value ([1]; MN8CampLuc) was “much less fold induction than compound 5” and the “Fold induction of the CAMP gene” value ([1]; MN8CampLuc, with and without pre-differentiation of cells by galactose, FIG. 3) was “little induction; also recorded: poor inducer”.
For `Nc1ccccc1NC(=O)c1ccccc1` [Compound 1, N-(2-Aminophenyl)benzamide], the “Concentration required for induction” value ([1]; MN8CampLuc, FIG. 2) was “slightly higher concentration”.
In the case of `NCCNC(=O)c1ccccc1` [Compound 17, N-(2-aminoethyl)-benzamide], the “Fold induction (as luciferase activity)” value ([1]; MN8CampLuc) is reported as “abolition of induction; also recorded: complete or significant loss of the induction ability”.
For `COc1ccc(C(=O)NCCN)cc1` [Compound 18, N-(2-aminoethyl)-4-methoxybenzamide], the “Fold induction (as luciferase activity)” value ([1]; MN8CampLuc) was “abolition of induction; also recorded: complete or significant loss of the induction ability”.
For `COc1ccc(C(=O)Nc2ccccc2N)cc1` [Compound 2, N-(2-Aminophenyl)-4-methoxybenzamide], the “Concentration required for induction” value ([1]; MN8CampLuc, FIG. 2) was “slightly higher concentration”.
In the case of Phenylbutyrate [Compound 13], the “Fold induction … (LL-37-luciferase)” value [1] is reported as “considerably lower induction”, the “CAMP gene expression (mRNA), course over time” value ([2]; HT-29 cells, FIG. 8) is reported as “gradual increase of the CAMP gene expression” and the “Expression of autophagy-related genes Beclin-1 and AtgS” value [3] is reported as “increased expression”.
In the case of `O=C(Nc1ccccc1O)c1ccccc1` [Compound 14, N-(2-Hydroxyphenyl) benzamide], the “Fold induction … (LL-37-luciferase)” value [1, 7] is reported as “virtually no induction; also recorded: complete or significant loss of the induction ability”.
In the case of `COc1ccccc1NC(=O)c1ccccc1` [Compound 15, N-(2-methoxyphenyl)benzamide], the “Fold induction … (LL-37-luciferase)” value [1, 7] is reported as “virtually no induction; also recorded: complete or significant loss of the induction ability”.
In the case of `COC(=O)Cn1cc(C(=O)NCc2ccc(C(=O)Nc3ccccc3N)cc2)nn1` [Compound 6, Methyl 2-(4-((4-((2-aminophenyl)carbamoyl)benzyl)carbamoyl)-1 H-1,2,3-triazol-1-yl)acetate], the “Concentration required for induction” value ([1]; MN8CampLuc, FIG. 2) is reported as “slightly higher concentration”.
In the case of `O=C(NCc1ccc(C(=O)O)cc1)OCc1cccnc1` [Compound 11, 4-((((pyridin-3-ylmethoxy)carbonyl)amino)methyl)benzoic acid], the “Fold induction … (LL-37-luciferase)” value [1, 7] is reported as “virtually no induction; also recorded: complete inactivity”.

From patent US9957226B2, “Antimicrobial compounds” (AKTHELIA PHARMACEUTICALS, priority 2013, dated 2018)
